US9840481B2, “Allosteric modulators of nicotinic acetylcholine receptors” (MERCK SHARP & DOHME CORP., priority 2016, dated 2017)
pEC50: −log10 of the molar value. Where two headings read alike, the source gives them in different places.

Target: T1, human α7 nAChR stably expressed in a HEK cell line (with human RIC-3) (Homo sapiens, UniProt P36544)
T1 construct: PrecisION hnAChR α7/RIC-3
Assay: Automated patch-clamp electrophysiology functional assay (Assay A), IonFlux HT, whole-cell population patch
Format: cell-based
In short: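 Whole-cell population patch clamp (IonFlux HT) used HEK cells stably co-expressing human α7 and RIC-3, held at −60 mV at room temperature. Compounds were applied alone (agonism) or with 40 μM acetylcholine (potentiation), three ascending concentrations per recording. Currents were quantified relative to a 40 μM acetylcholine reference response, giving EC50.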

[1] = automated patch-clamp electrophysiology functional assay (Assay A), potency class by EC50, read-out: α7 nAChR Potency
[2] = electrophysiology EC50, HEK cells expressing human α7/RIC-3, 40 μM acetylcholine, holding potential −60 mV, room temperature, read-out: α7 nAChR EC50

T1 sequence (P36544 23-502): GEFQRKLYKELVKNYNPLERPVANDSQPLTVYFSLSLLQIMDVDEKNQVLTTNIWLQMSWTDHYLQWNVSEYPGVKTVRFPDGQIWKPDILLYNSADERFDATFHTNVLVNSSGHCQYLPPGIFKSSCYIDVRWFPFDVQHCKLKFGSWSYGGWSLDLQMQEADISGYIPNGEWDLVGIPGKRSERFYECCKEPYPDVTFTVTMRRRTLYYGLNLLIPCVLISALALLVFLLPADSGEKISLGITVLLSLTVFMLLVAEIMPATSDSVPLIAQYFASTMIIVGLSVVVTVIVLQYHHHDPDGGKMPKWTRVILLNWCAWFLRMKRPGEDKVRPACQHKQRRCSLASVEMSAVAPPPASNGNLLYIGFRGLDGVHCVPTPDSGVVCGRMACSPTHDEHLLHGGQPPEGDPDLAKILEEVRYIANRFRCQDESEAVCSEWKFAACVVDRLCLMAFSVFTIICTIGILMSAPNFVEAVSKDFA

## CC1(C)[C@H](c2ccc(S(N)(=O)=O)cc2)[C@H]1c1nc(C2CC3(CCC3)C2)no1 (stereo partly shown) [Example B15]
[1]
  pEC50: 5.30 to 6.30

## CC1(C)C(c2ccc(S(N)(=O)=O)c(F)c2)C1c1nc(-c2ccccc2)no1 (single isomer, unassigned; enantiomer a) [Example 32, 4-[trans-2,2-Dimethyl-3-(3-phenyl-1,2,4-oxadiazol-5-yl)cyclopropyl]-2-fluorobenzenesulfonamide, enantiomer A]
[1]
  pEC50: 5.30 to 6.30
[2]
  pEC50: 6.07

## CC1(C)[C@@H](c2ccc(S(N)(=O)=O)cc2)[C@@H]1c1noc(-c2cnccc2C(F)(F)F)n1 [Example I20]
[1]
  pEC50: 6.30 to 7.00

## CC1(C)[C@@H](c2ccc(S(N)(=O)=O)cc2)[C@@H]1c1cnc(-c2ccccc2)o1 [Example L1]
[1]
  pEC50: 5.30 to 6.30

## CC1(C)[C@H](c2ccc(S(N)(=O)=O)cc2)[C@H]1c1nnc(-c2cc(F)ccc2C(F)(F)F)o1 [Example F2]
[1]
  pEC50: 5.30 to 6.30

## CC1(C)[C@@H](c2ccc(S(N)(=O)=O)cc2)[C@@H]1c1nc(C2(C(F)(F)F)CC2)no1 [Example D33]
[1]
  pEC50: 6.30 to 7.00
[2]
  pEC50: 6.68

## CC1(C)[C@H](c2ccc(S(N)(=O)=O)cc2)[C@H]1c1nc(C2CCCC2)co1 [Example J8]
[1]
  pEC50: 5.30 to 6.30

## NS(=O)(=O)c1ccc([C@@H]2C[C@H]2c2nc(-c3ccccc3)co2)cc1 [Example 9, 4-[(1R,2R)-2-(4-Phenyl-1,3-oxazol-2-yl)cyclopropyl]benzenesulfonamide]
[1]
  pEC50: 6.30 to 7.00
[2]
  pEC50: 6.37

## NS(=O)(=O)c1ccc(C2C(c3ncc(-c4ccccc4)o3)C2(F)F)cc1 (racemic) [Example M1]
[1]
  pEC50: 5.30 to 6.30

## NS(=O)(=O)c1ccc([C@@H]2C[C@H]2c2nc(-c3ccc(F)cc3)no2)cc1 [Example C14]
[1]
  pEC50: ≥ 7.00
[2]
  pEC50: 7.03

## CC1(C)[C@H](c2ccc(S(N)(=O)=O)cc2)[C@H]1c1nnc(-c2ccc(F)cc2F)s1 [Example 5, 4-{(1R,3R)-3-[5-(2,4-Difluorophenyl)-1,3,4-thiadiazol-2-yl]-2,2-dimethylcyclopropyl}benzenesulfonamide]
[1]
  pEC50: 6.30 to 7.00
[2]
  pEC50: 6.74
